From article PMC8355244, “A fragment-based approach identifies an allosteric pocket that impacts malate dehydrogenase activity” (Communications Biology, 2021)

Biological target: T1, PfMDH (Plasmodium falciparum, UniProt Q6VVP7)
T1 construct: The full-length WT PfMDH gene was cloned into pETM-13; made in house; host or cells: E. coli Rosetta 2 (DE3) pLysS
Assay: Thermal shift assay (TSA)
Format: binding
Conditions: for TSA melting curve raw signal: triplicate columns; for TSA melting curve raw fluorescence signal: three replicate columns
Summary of the method: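 10 μM PfMDH with 1 mM compound in 100 mM Na–phosphate pH 7.4, 400 mM NaCl, 10× Sypro Orange; 1% DMSO controls. Melting inflection points taken as Tm; shifts >1 °C read as stabilization, negative shifts as destabilization.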

T1 sequence (Q6VVP7 entry or part of it): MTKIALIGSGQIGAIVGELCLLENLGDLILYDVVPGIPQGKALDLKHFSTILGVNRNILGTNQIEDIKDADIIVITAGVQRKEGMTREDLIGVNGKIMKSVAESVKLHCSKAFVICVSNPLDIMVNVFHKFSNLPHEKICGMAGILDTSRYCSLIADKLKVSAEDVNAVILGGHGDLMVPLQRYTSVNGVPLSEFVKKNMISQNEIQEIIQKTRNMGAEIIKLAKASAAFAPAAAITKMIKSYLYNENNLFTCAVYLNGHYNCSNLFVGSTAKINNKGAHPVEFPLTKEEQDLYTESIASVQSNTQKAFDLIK

Nc1nc(-c2cccc(C(F)(F)F)c2)cs1 [4PA-CF3]
TSA melting curve raw signal (Temperature 25): 3528,09586476992 | TSA melting curve raw signal (Temperature 25.5): 3521,76972099321 | TSA melting curve raw signal (Temperature 26): 3515,44357721651 | TSA melting curve raw signal (Temperature 26.5): 3509,11743343981 | TSA melting curve raw signal (Temperature 27): 3502,7912896631 | TSA melting curve raw signal (Temperature 27.5): 3496,46514588642 | TSA melting curve raw signal (Temperature 28): 3490,13900210971 | TSA melting curve raw signal (Temperature 28.5): 3483,6143624971 | TSA melting curve raw signal (Temperature 29): 3476,38988350175 | TSA melting curve raw signal (Temperature 29.5): 3468,17176134374 | TSA melting curve raw signal (Temperature 30): 3458,89345122044 | TSA melting curve raw signal (Temperature 30.5): 3449,61666086928 | TSA melting curve raw signal (Temperature 31): 3441,08813548452 | TSA melting curve raw signal (Temperature 31.5): 3434,74480463775 | TSA melting curve raw signal (Temperature 32): 3431,63306422988 | TSA melting curve raw signal (Temperature 32.5): 3433,04755783933 | TSA melting curve raw signal (Temperature 33): 3439,08846015031 | TSA melting curve raw signal (Temperature 33.5): 3450,49167244057 | TSA melting curve raw signal (Temperature 34): 3467,07326310557 | TSA melting curve raw signal (Temperature 34.5): 3489,23124555062 | TSA melting curve raw signal (Temperature 35): 3516,74965348479 | TSA melting curve raw signal (Temperature 35.5): 3550,12307997406 | TSA melting curve raw signal (Temperature 36): 3588,6701161146 | TSA melting curve raw signal (Temperature 36.5): 3632,52278047685 | TSA melting curve raw signal (Temperature 37): 3681,13015232277 | TSA melting curve raw signal (Temperature 37.5): 3734,10747497721 | TSA melting curve raw signal (Temperature 38): 3790,66694872421 | TSA melting curve raw signal (Temperature 38.5): 3851,32307413445 | TSA melting curve raw signal (Temperature 39): 3915,60016677996 | TSA melting curve raw signal (Temperature 39.5): 3983,88715310611 | TSA melting curve raw signal (Temperature 40): 4056,33336034943 | TSA melting curve raw signal (Temperature 40.5): 4133,49326014565 | TSA melting curve raw signal (Temperature 41): 4215,01497025314 | TSA melting curve raw signal (Temperature 41.5): 4301,78127396551 | TSA melting curve raw signal (Temperature 42): 4393,43575455581 | TSA melting curve raw signal (Temperature 42.5): 4490,37169124646 | TSA melting curve raw signal (Temperature 43): 4592,69941738304 | TSA melting curve raw signal (Temperature 43.5): 4701,32966638299 | TSA melting curve raw signal (Temperature 44): 4815,85327556672 | TSA melting curve raw signal (Temperature 44.5): 4937,62413315095 | TSA melting curve raw signal (Temperature 45): 5067,14562465788 | TSA melting curve raw signal (Temperature 45.5): 5204,83599333482 | TSA melting curve raw signal (Temperature 46): 5349,70118139591 | TSA melting curve raw signal (Temperature 46.5): 5501,84311892238 | TSA melting curve raw signal (Temperature 47): 5660,17327748149 | TSA melting curve raw signal (Temperature 47.5): 5824,5723421521 | TSA melting curve raw signal (Temperature 48): 5994,36303099828 | TSA melting curve raw signal (Temperature 48.5): 6169,71492788648 | TSA melting curve raw signal (Temperature 49): 6349,90301622462 | TSA melting curve raw signal (Temperature 49.5): 6533,67708046246 | TSA melting curve raw signal (Temperature 50): 6718,43346697938 | TSA melting curve raw signal (Temperature 50.5): 6903,01197489117 | TSA melting curve raw signal (Temperature 51): 7086,14140810373 | TSA melting curve raw signal (Temperature 51.5): 7267,40973427596 | TSA melting curve raw signal (Temperature 52): 7446,07311090688 | TSA melting curve raw signal (Temperature 52.5): 7623,17790419487 | TSA melting curve raw signal (Temperature 53): 7798,35186729642 | TSA melting curve raw signal (Temperature 53.5): 7971,57187818721 | TSA melting curve raw signal (Temperature 54): 8142,18042787582 | TSA melting curve raw signal (Temperature 54.5): 8310,47539211232 | TSA melting curve raw signal (Temperature 55): 8475,6367965612 | TSA melting curve raw signal (Temperature 55.5): 8637,15264587991 | TSA melting curve raw signal (Temperature 56): 8794,24720730786 | TSA melting curve raw signal (Temperature 56.5): 8944,76644495546 | TSA melting curve raw signal (Temperature 57): 9087,23982318044 | TSA melting curve raw signal (Temperature 57.5): 9218,83300839243 | TSA melting curve raw signal (Temperature 58): 9336,46564098951 | TSA melting curve raw signal (Temperature 58.5): 9436,67708833889 | TSA melting curve raw signal (Temperature 59): 9517,94306567009 | TSA melting curve raw signal (Temperature 59.5): 9577,90589829803 | TSA melting curve raw signal (Temperature 60): 9615,75986877433 | TSA melting curve raw signal (Temperature 60.5): 9632,47637998784 | TSA melting curve raw signal (Temperature 61): 9629,58012627007 | TSA melting curve raw signal (Temperature 61.5): 9608,67157988917 | TSA melting curve raw signal (Temperature 62): 9572,5500875914 | TSA melting curve raw signal (Temperature 62.5): 9524,64551903011 | TSA melting curve raw signal (Temperature 63): 9467,03768559296 | TSA melting curve raw signal (Temperature 63.5): 9402,51349679748 | TSA melting curve raw signal (Temperature 64): 9333,57184164816 | TSA melting curve raw signal (Temperature 64.5): 9261,62563971527 | TSA melting curve raw signal (Temperature 65): 9187,49083186044 | TSA melting curve raw fluorescence signal (Temperature 65.5): 9112,23978010048 | TSA melting curve raw fluorescence signal (Temperature 66): 9036,14068242361 | TSA melting curve raw fluorescence signal (Temperature 66.5): 8959,64465212255 | TSA melting curve raw fluorescence signal (Temperature 67): 8882,7175782058 | TSA melting curve raw fluorescence signal (Temperature 67.5): 8805,44643012468 | TSA melting curve raw fluorescence signal (Temperature 68): 8728,2852860298 | TSA melting curve raw fluorescence signal (Temperature 68.5): 8651,13021944227 | TSA melting curve raw fluorescence signal (Temperature 69): 8573,32870649645 | TSA melting curve raw fluorescence signal (Temperature 69.5): 8495,58180428762 | TSA melting curve raw fluorescence signal (Temperature 70): 8418,5896254098 | TSA melting curve raw fluorescence signal (Temperature 70.5): 8341,60149220391 | TSA melting curve raw fluorescence signal (Temperature 71): 8265,01816022305 | TSA melting curve raw fluorescence signal (Temperature 71.5): 8189,69867306721 | TSA melting curve raw fluorescence signal (Temperature 72): 8115,16555879573 | TSA melting curve raw fluorescence signal (Temperature 72.5): 8040,74958248259 | TSA melting curve raw fluorescence signal (Temperature 73): 7967,12767450409 | TSA melting curve raw fluorescence signal (Temperature 73.5): 7893,92662128296 | TSA melting curve raw fluorescence signal (Temperature 74): 7821,33430208039 | TSA melting curve raw fluorescence signal (Temperature 74.5): 7749,70992701054 | TSA melting curve raw fluorescence signal (Temperature 75): 7679,18807246448 | TSA melting curve raw fluorescence signal (Temperature 75.5): 7609,86094414536 | TSA melting curve raw fluorescence signal (Temperature 76): 7542,08165155543 | TSA melting curve raw fluorescence signal (Temperature 76.5): 7475,0463497461 | TSA melting curve raw fluorescence signal (Temperature 77): 7409,10099573983 | TSA melting curve raw fluorescence signal (Temperature 77.5): 7344,43096825342 | TSA melting curve raw fluorescence signal (Temperature 78): 7280,55827608543 | TSA melting curve raw fluorescence signal (Temperature 78.5): 7217,66024170967 | TSA melting curve raw fluorescence signal (Temperature 79): 7156,47260834302 | TSA melting curve raw fluorescence signal (Temperature 79.5): 7096,07409325447 | TSA melting curve raw fluorescence signal (Temperature 80): 7036,61045690039 | TSA melting curve raw fluorescence signal (Temperature 80.5): 6978,28713486927 | TSA melting curve raw fluorescence signal (Temperature 81): 6920,87145232924 | TSA melting curve raw fluorescence signal (Temperature 81.5): 6863,63731764689 | TSA melting curve raw fluorescence signal (Temperature 82): 6807,28937755567 | TSA melting curve raw fluorescence signal (Temperature 82.5): 6751,29328141381 | TSA melting curve raw fluorescence signal (Temperature 83): 6695,78422169472 | TSA melting curve raw fluorescence signal (Temperature 83.5): 6641,03413791343 | TSA melting curve raw fluorescence signal (Temperature 84): 6587,1569082437 | TSA melting curve raw fluorescence signal (Temperature 84.5): 6533,84298175497 | TSA melting curve raw fluorescence signal (Temperature 85): 6481,33407729233 | TSA melting curve raw fluorescence signal (Temperature 85.5): 6429,30339853042 | TSA melting curve raw fluorescence signal (Temperature 86): 6377,40763821637 | TSA melting curve raw fluorescence signal (Temperature 86.5): 6325,81148238932 | TSA melting curve raw fluorescence signal (Temperature 87): 6274,52300647726 | TSA melting curve raw fluorescence signal (Temperature 87.5): 6222,85213595833 | TSA melting curve raw fluorescence signal (Temperature 88): 6171,16491119654 | TSA melting curve raw fluorescence signal (Temperature 88.5): 6119,12156951999 | TSA melting curve raw fluorescence signal (Temperature 89): 6066,61924971662 | TSA melting curve raw fluorescence signal (Temperature 89.5): 6013,73939632859 | TSA melting curve raw fluorescence signal (Temperature 90): 5961,79604131278 | TSA melting curve raw fluorescence signal (Temperature 90.5): 5910,31866711244 | TSA melting curve raw fluorescence signal (Temperature 91): 5859,96386783167 | TSA melting curve raw fluorescence signal (Temperature 91.5): 5810,60393842017 | TSA melting curve raw fluorescence signal (Temperature 92): 5761,96047868944 | TSA melting curve raw fluorescence signal (Temperature 92.5): 5713,35101332965 | TSA melting curve raw fluorescence signal (Temperature 93): 5664,77915169386 | TSA melting curve raw fluorescence signal (Temperature 93.5): 5615,83290965879 | TSA melting curve raw fluorescence signal (Temperature 94): 5566,24729616446 | TSA melting curve raw fluorescence signal (Temperature 94.5): 5516,6627489992 | TSA melting curve raw fluorescence signal (Temperature 95): 5465,82751388956
